Experimental data published in patent US20160201045A1, “Endo-xylanase and Coding Gene and Use Thereof” (SHANGHAI INSTITUTES FOR BIOLOGICAL SCIENCES CHINESE ACADEMY …, priority 2013, published 2016).

B1: Xyl7R3: fragment of Xyl7 consisting of amino acids 19-272 of SEQ ID NO:2 (protein)
chain: AQGPTWTTSTIQAYNGYDYELWNQNNAGTVSMKLTGDNGSGASAVGGTFTATWSNTQNVLFRSGKKWGSSSNQNHTQIGNMSINFAATWSSTDNVKMLGVYGWAYFTSANVPTKQENGTNASFSNQIEYYIIQDRGSYNPASGGTNAKKYGSATIDGIAYDFYVCDRINQPMLTGNGNFKQFFSVPQSASAHRTSGTISVSQHFNKWHELGMKMDGPLYEVAMKVESYTGSGSSNGSATVTKNLLTIGGTTPTP
modifications: Intestinal tract metagenome of termite
B2: Xyl7R2: fragment of Xyl7 consisting of amino acids 19-267 of SEQ ID NO:2 (protein)
chain: AQGPTWTTSTIQAYNGYDYELWNQNNAGTVSMKLTGDNGSGASAVGGTFTATWSNTQNVLFRSGKKWGSSSNQNHTQIGNMSINFAATWSSTDNVKMLGVYGWAYFTSANVPTKQENGTNASFSNQIEYYIIQDRGSYNPASGGTNAKKYGSATIDGIAYDFYVCDRINQPMLTGNGNFKQFFSVPQSASAHRTSGTISVSQHFNKWHELGMKMDGPLYEVAMKVESYTGSGSSNGSATVTKNLLTIGG
modifications: Intestinal tract metagenome of termite

What was measured:
[1] = test system: Xyl7; assay: Effect of different chemical agents and metal ions on the enzymatic activity of Xyl7; type: biochemical, microorganisms in termite gut; settings: for action on Xyl7 (in words) / increase for the activity of the enzyme: 10 mmol/L; for Relative Activity (%) of Xyl7: Metal Ion or Chemical Agent 10 mM, enzyme without agent = 100%
Method: (§1) In a 100 μl reaction system, birch xylan was added to a final concentration of 1% (w/w), and Na2HPO4/NaH2PO4 buffer (pH7.0) was added to a final concentration of 100 mM. A suitable amount of enzyme solution diluted by the abovementioned buffer was added to the reaction system for reaction at 50[…] for 10 minutes. 100 μl DNS were added to stop the reaction. For the control, 100 μl DNS were firstly added to the above reaction system before adding the enzyme solution. The reaction mixtures were subjected to a boiled water bath for 5 minutes to develop color. Absorbance value at 540 nm was detected by a microplate reader. After subtracting the absorbance value of the control from that of the sample, the enzymatic activity unit (U) was calculated based on the standard curve.
Various compounds were added into the reaction system to a final concentration of 10 mmol/L. Enzymatic activity was tested according to the above standard enzymatic activity detection steps. The specific activity value of the enzyme without treated by any chemical agent or metal ion was used as a reference value and its relative activity was defined as 100%.

[2] = Standard enzymatic activity detection (DNS method) on birch xylan; type: biochemical; settings: standard steps: 1% birch xylan, pH7.0, 50, 10 minutes
Method: Enzymatic activity of the endo-1,4-β-xylanase was tested by a DNS method as follows:
10 g NaOH were weighed and dissolved in about 400 ml ddH2O. 10 g dinitrosalicylic acid, 2 g phenol, 0.5 g anhydrous sodium sulfite and 200 g potassium sodium tartrate tetrahydrate were weighed and dissolved in about 300 ml ddH2O. The two solutions were mixed, diluted to 1 liter and preserved in dark.
100 μl DNS were added into each of the above standard samples. The mixtures were subjected to boiled water bath for 5 minutes for developing color. Absorbance value at 540 nm was detected by a microplate reader. Standard sample 1 was a blank control. The absorbance value of the blank control was subtracted from that of each sample and then the standard curve was plotted.
as §1
Definition of enzymatic activity unit (U): 1U refers to the amount of enzyme required for catalytically hydrolyzing xylan to produce 1 μmol xylose.
Definition of specific activity unit: enzymatic activity of 1 mg protein (U/mg).
Various substrates with a final concentration of 2% (w/w) were treated by a suitable amount of enzymes at pH7.0 and 50[…] for 10 minutes. Enzymatic activity was tested according to the above standard enzymatic activity detection steps. […] No detectable enzymatic activity was found for the other test substrates. […]

[3] = Detection on the optimum temperature; type: biochemical; settings: compared with Xyl7
Method: as §1
Enzymatic activity was detected according the above standard enzymatic activity detection steps at pH 7.0 and a temperature in the range of 25-80° C. The optimum temperature of Xyl7 was in the range of 50-55° C., with an activity at 50[…] slightly higher than that at 55[…]. Thus, the specific activity value of the enzyme at 50[…] was used as a reference value and its relative activity was defined as 100%. The relative activity of the enzyme at each temperature was a ratio between the specific activity value of the enzyme at each temperature and the reference value.

Row | Molecule | action on Xyl7 (in words) [1] | Relative Activity (%) of Xyl7 [1] [%] | other results
1 | [Fe+2] [Fe^2+] | obviously inhibited | 25.33 ± 0.46 | Relative Activity (%) of Xyl7 ([1]; listed as Fe^3+): 90.41 ± 3.36%
2 | [Cu+2] [Cu^2+] | could activate | 108.69 ± 2.99 | –
3 | [Al+3] [Al^3+] | – | 77.68 ± 2.32 | –
4 | [Mn+2] [Mn^2+] | could activate | 125.73 ± 7.8 | increase for the activity of the enzyme [1]: about 20%
5 | O=C(O)CN(CCN(CC(=O)O)CC(=O)O)CC(=O)O [EDTA] | obviously inhibited | 88.65 ± 1.62 | –
6 | [Zn+2] [Zn^2+] | obviously inhibited | 64.88 ± 1.36 | –
7 | [Ba+2] [Ba^2+] | – | 90.71 ± 1.94 | –
8 | [Ca+2] [Ca^2+] | – | 90.1 ± 12.82 | –
9 | [Ni+2] [Ni^2+] | obviously inhibited | 44.25 ± 4.98 | –
10 | [K+] [K^+] | could activate | 125.6 ± 11.98 | increase for the activity of the enzyme [1]: about 20%
11 | [Co+2] [Co^2+] | could activate | 109.14 ± 3.45 | –
12 | [Mg+2] [Mg^2+] | no obvious action | 101.53 ± 3.02 | –
13 | B1 | – | – | specific activity by the standard enzymatic activity detection steps of Example 3 [2]: 8775 U/mg; optimum temperature and tolerance on temperature [3]: almost identical to those of Xyl7
14 | B2 | – | – | specific activity by the standard enzymatic activity detection steps of Example 3 [2]: 8560 U/mg
